From ChEMBL document CHEMBL1138396, “Constrained azacyclic analogues of the immunomodulatory agent FTY720 as molecular probes for sphingosine 1-phosphate receptors” (Bioorg Med Chem Lett, 2007)

How the values were obtained:
[1] = target: T1, Sphingosine 1-phosphate receptor 4 (Homo sapiens, UniProt O95977); assay: Activity at human recombinant S1P4 receptor expressed in CHO cells assessed as increase in calcium release by FLIPR assay; assay type: functional, cell-based
T1 sequence (O95977 whole entry): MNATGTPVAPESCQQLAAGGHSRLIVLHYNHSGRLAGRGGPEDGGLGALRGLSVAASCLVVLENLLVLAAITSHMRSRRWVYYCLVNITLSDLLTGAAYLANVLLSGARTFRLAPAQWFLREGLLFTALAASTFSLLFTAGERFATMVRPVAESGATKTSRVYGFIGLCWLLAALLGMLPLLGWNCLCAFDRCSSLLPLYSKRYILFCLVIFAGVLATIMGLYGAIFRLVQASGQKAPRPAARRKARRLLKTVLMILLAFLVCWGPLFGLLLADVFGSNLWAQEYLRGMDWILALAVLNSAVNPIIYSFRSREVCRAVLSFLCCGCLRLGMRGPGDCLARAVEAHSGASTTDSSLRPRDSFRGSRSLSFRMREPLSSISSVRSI

[2] = target: Sphingosine 1-phosphate receptor 5 (Homo sapiens, UniProt Q9H228); assay: Activity at human recombinant S1P5 receptor expressed in CHO cells assessed as increase in calcium release by FLIPR assay; assay type: functional, cell-based
[3] = target: Sphingosine 1-phosphate receptor 1 (Homo sapiens, UniProt P21453); assay: Activity at human recombinant S1P1 receptor expressed in CHO cells assessed as increase in calcium release by FLIPR assay; assay type: functional, cell-based
[4] = target: Sphingosine 1-phosphate receptor 3 (Homo sapiens, UniProt Q99500); assay: Activity at human recombinant S1P3 receptor expressed in CHO cells assessed as increase in calcium release by FLIPR assay; assay type: functional, cell-based
[5] = target: T2, Sphingosine kinase 2 (Homo sapiens) (UniProt Q9NRA0); assay: Effect on rate of phosphorylation of human recombinant SPHK2 expressed in HEK293 cells; assay type: cell-based
T2 sequence (whole entry): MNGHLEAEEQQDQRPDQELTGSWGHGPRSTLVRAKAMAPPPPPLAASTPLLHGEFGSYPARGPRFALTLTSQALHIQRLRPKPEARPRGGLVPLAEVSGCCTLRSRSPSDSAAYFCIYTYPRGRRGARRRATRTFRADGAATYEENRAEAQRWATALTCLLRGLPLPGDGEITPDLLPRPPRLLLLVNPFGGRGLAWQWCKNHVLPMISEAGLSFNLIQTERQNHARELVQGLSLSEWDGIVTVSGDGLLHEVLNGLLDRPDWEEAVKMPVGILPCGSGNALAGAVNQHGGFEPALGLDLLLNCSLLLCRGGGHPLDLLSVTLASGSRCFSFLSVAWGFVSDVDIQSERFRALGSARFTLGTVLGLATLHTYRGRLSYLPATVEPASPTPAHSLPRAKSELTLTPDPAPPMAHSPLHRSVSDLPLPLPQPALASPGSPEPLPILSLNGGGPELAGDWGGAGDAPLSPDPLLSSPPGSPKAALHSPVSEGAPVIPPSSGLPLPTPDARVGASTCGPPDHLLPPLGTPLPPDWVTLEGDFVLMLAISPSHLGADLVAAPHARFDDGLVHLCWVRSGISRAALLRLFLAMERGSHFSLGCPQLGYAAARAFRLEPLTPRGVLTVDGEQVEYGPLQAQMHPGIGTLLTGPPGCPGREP

Chain of Sphingosine 1-phosphate receptor 3 (Q99500 whole entry): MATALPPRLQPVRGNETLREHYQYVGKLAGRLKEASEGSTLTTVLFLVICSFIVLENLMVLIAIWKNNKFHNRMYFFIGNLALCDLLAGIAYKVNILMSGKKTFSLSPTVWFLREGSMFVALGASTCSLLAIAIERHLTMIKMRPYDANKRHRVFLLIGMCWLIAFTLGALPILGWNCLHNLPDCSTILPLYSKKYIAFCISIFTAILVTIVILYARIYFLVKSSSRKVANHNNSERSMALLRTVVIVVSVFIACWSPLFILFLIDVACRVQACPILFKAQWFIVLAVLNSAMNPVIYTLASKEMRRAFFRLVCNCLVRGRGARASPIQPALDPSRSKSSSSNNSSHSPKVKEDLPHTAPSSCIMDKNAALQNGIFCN
Chain of Sphingosine 1-phosphate receptor 5 (Q9H228 whole entry): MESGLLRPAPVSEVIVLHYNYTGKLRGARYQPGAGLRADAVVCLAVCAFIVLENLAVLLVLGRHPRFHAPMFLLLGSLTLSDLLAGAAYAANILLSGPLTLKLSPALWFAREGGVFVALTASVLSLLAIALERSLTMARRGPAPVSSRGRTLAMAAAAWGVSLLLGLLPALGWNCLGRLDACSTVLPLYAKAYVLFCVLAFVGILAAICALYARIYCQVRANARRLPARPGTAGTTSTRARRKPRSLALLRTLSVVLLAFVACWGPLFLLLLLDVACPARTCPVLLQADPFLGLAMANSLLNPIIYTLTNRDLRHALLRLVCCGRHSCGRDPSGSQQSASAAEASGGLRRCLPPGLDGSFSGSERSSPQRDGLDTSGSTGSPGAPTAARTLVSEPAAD
Chain of Sphingosine 1-phosphate receptor 1 (P21453 whole entry): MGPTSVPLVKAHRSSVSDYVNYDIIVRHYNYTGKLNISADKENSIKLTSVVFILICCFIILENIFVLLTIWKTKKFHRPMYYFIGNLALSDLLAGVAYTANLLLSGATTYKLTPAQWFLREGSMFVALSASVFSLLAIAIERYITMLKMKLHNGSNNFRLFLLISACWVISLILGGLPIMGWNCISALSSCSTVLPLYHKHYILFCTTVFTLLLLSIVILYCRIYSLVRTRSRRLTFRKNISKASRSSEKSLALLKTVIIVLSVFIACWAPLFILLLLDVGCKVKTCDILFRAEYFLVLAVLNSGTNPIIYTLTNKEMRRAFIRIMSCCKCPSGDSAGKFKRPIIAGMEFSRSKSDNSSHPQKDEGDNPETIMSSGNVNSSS

Row | EC50 [1] [nM] | EC50 [2] [nM] | EC50 [3] [nM] | EC50 [4] [nM] | Activity [5] [%] | Compound
1 | 18.6 | – | – | – | – | CCCCCCCCc1ccc(CC[C@@](N)(CO)COP(=O)(O)O)cc1
2 | 16.8 | 5.8 | > 1000 | > 1000 | – | CCCCCCCCc1ccc([C@@H]2C[C@@H](COP(=O)(O)O)N[C@H]2CO)cc1
3 | – | – | – | – | 100 | CCCCCCCCCCCCC/C=C/[C@@H](O)[C@@H](N)CO
4 | 347 | 134 | > 1000 | > 1000 | – | CCCCCCCCc1ccc([C@H]2C[C@H](CO)N[C@@H]2COP(=O)(O)O)cc1
5 | – | – | – | – | 13 | CCCCCCCCc1ccc(CCC(N)(CO)CO)cc1
6 | – | – | – | – | 55 | CCCCCCCCc1ccc([C@H]2C[C@H](CO)N[C@@H]2CO)cc1
7 | 7.4 | 10.2 | > 1000 | > 1000 | – | CCCCCCCCc1ccc([C@H]2C[C@H](COP(=O)(O)O)N[C@@H]2CO)cc1
8 | – | – | – | – | < 0.1 | CCCCCCCCc1ccc([C@@H]2C[C@@H](CO)N[C@H]2CO)cc1
9 | 33.1 | 21.3 | > 1000 | > 1000 | – | CCCCCCCCc1ccc([C@@H]2C[C@@H](CO)N[C@H]2COP(=O)(O)O)cc1

Row | Compound | EC50 [1] [nM] | EC50 [2] [nM] | EC50 [3] [nM] | EC50 [4] [nM] | Activity [5] [%]
10 | CCCCCCCCCCCCC/C=C/[C@@H](O)[C@@H](N)COP(=O)(O)O | 7.9 | – | 0.55 | 1.6 | –
